{"source": "patent US20220267313A1", "about": "“DIHYDROPYRIMIDINE DERIVATIVES AND USES THEREOF IN THE TREATMENT OF HBV INFECTION OR OF HBV-INDUCED DISEASES” (Janssen Sciences Ireland Unlimited Company, priority 2019, published 2022)", "key": {"HBV": {"system": "HBV", "assay": "Anti-HBV activity: HBV DNA in culture medium by qPCR, HepG2.2.15 cells", "format": "cell-based", "settings": "Hepatitis B virus, 144 h, 6 days treatment", "experimental": "(§1) HepG2.2.15 (the HepG2.2.15 cell line can be produced by transfection of the HepG2 cell line as described in Sells, Chen, and Acs 1987 (Proc. Natl. Acad. Sci. USA 84: 1005-1009), and the HepG2 cell line is available from ATCC® under number HB-8065™)\n(§2) HepG2.2.15 cells were plated into 96-well plate in 2% FBS culture medium at the density of 40,000 cells/well and 5,000 cells/well for HBV inhibitory activity and cytotoxicity determination, respectively. After incubation at 37° C., 5% CO2 overnight, cells were treated with medium containing compounds for 6 days with medium and compounds refreshed after 3 days of treatment. Each compound was tested in a 1:3 serial dilutions at 8 different concentrations in triplicate. The highest concentration of the compounds was 10 uM or 1 uM for anti-HBV activity assay and 100 uM for cytotoxicity determination.\nThe change of HBV DNA level induced by the compounds was assessed by quantitative real-time polymerase chain reaction (qPCR). Briefly, the HBV DNA in the culture medium was extracted using QIAamp 96 DNA Blood Kit according to the manual and then quantified by real-time PCR assay using the primers and probe in the table 1 below.\n(§3) EC50 and CC50 values are calculated by the GRAPHPAD PRISM software."}, "[1]": {"assay": "Cytotoxicity determination by CCK-8 assay, HepG2.2.15 cells", "format": "cell-based", "settings": "human, 6 days treatment", "experimental": "as §1, §2\nCell viability was determined by CCK-8 assay. After 6 days of compounds treatment, 20 μl CCK-8 reagents were added to each well of cytotoxicity assay plates. Cell plates were incubated at 37° C., 5% CO2 for 2.5 h. The absorbance at 450 nm wavelength and the absorbance at 630 nm wavelength as reference was measured.\nas §3"}}}
{"smiles": "CCOC(=O)C1=C(C23C4C5C2C2C3C4C52C(=O)O)NC(c2nccs2)=N[C@@H]1c1ccc(F)c(F)c1Cl", "note": "(stereo in doubt) [Ib-7, (2S,3S,5S,6S,7S,8S)-4-((S*)-6-(2-chloro-3,4-difluorophenyl)-5-(ethoxycarbonyl)-2-(thiazol-2-yl)-3,6-dihydropyrimidin-4-yl)cubane-1-carboxylic Acid]", "values": [{"measurement": "EC50", "setting": "HBV", "value": 25000, "unit": "nM"}, {"measurement": "CC50 at 6 days", "setting": "[1]", "value": 5, "unit": "nM"}]}
{"smiles": "COC(=O)C1=C(C23C4C5C2C2C3C4C52C(=O)O)NC(c2nccs2)=N[C@@H]1c1ccc(F)c(F)c1Br", "note": "(stereo in doubt) [Ib-13, (2S,3S,5S,6S,7S,8S)-4-((S*)-6-(2-bromo-3,4-difluorophenyl)-5-(methoxycarbonyl)-2-(thiazol-2-yl)-3,6-dihydropyrimidin-4-yl)cubane-1-carboxylic Acid]", "values": [{"measurement": "EC50", "setting": "HBV", "value": "> 25000", "unit": "nM"}, {"measurement": "CC50 at 6 days", "setting": "[1]", "value": 27, "unit": "nM"}]}
{"smiles": "CCOC(=O)C1=C(C23C4C5C2C2C3C4C52C(=O)O)NC(c2nccs2)=N[C@@H]1c1ccc(F)c(F)c1Br", "note": "(stereo in doubt) [Ib-14, (2S,3S,5S,6S,7S,8S)-4-((S*)-6-(2-bromo-3,4-difluorophenyl)-5-(ethoxycarbonyl)-2-(thiazol-2-yl)-3,6-dihydropyrimidin-4-yl)cubane-1-carboxylic Acid]", "values": [{"measurement": "EC50", "setting": "HBV", "value": 41000, "unit": "nM"}, {"measurement": "CC50 at 6 days", "setting": "[1]", "value": 7, "unit": "nM"}]}
{"smiles": "CCOC(=O)C1=C(C23C4C5C2C2C3C4C52C(=O)O)NC(c2nccs2)=N[C@@H]1c1cccc(F)c1Cl", "note": "(stereo in doubt) [Ib-15, (2S,3S,5S,6S,7S,8S)-4-((S*)-6-(2-chloro-3-fluorophenyl)-5-(ethoxycarbonyl)-2-(thiazol-2-yl)-3,6-dihydropyrimidin-4-yl)cubane-1-carboxylic Acid]", "values": [{"measurement": "EC50", "setting": "HBV", "value": "> 50000", "unit": "nM"}, {"measurement": "CC50 at 6 days", "setting": "[1]", "value": 19, "unit": "nM"}]}
{"smiles": "COC(=O)C1=C(C23C4C5C2C2C3C4C52C(=O)O)NC(c2nccs2)=N[C@@H]1c1ccc(F)cc1Br", "note": "(stereo in doubt) [Ib-16, (2S,3S,5S,6S,7S,8S)-4-((S*)-6-(2-bromo-4-fluorophenyl)-5-(methoxycarbonyl)-2-(thiazol-2-yl)-3,6-dihydropyrimidin-4-yl)cubane-1-carboxylic Acid]", "values": [{"measurement": "EC50", "setting": "HBV", "value": "> 50000", "unit": "nM"}, {"measurement": "CC50 at 6 days", "setting": "[1]", "value": 71, "unit": "nM"}]}
{"smiles": "COC(=O)C1=C(C23C4C5C2C2C3C4C52C(=O)O)NC(c2nccs2)=N[C@@H]1c1cccc(F)c1Br", "note": "(stereo in doubt) [Ib-17, (2S,3S,5S,6S,7S,8S)-4-((S*)-6-(2-bromo-3-fluorophenyl)-5-(methoxycarbonyl)-2-(thiazol-2-yl)-3,6-dihydropyrimidin-4-yl)cubane-1-carboxylic Acid]", "values": [{"measurement": "EC50", "setting": "HBV", "value": 25000, "unit": "nM"}, {"measurement": "CC50 at 6 days", "setting": "[1]", "value": 125, "unit": "nM"}]}
{"smiles": "COC(=O)C1=C(C23C4C5C2C2C3C4C52C(=O)O)NC(c2nccs2)=N[C@@H]1c1ccc(F)c(F)c1F", "note": "(stereo in doubt) [Ib-22, (S*)-4-((2,3,4-trifluorophenyl)-6-(methoxycarbonyl)-2-(thiazolel-4-yl))-1,4-dihydropyrimidin-4-yl)cubane-5-carboxylic Acid]", "values": [{"measurement": "EC50", "setting": "HBV", "value": "> 25000", "unit": "nM"}, {"measurement": "CC50 at 6 days", "setting": "[1]", "value": 282, "unit": "nM"}]}
{"smiles": "CCOC(=O)C1=C(C23C4C5C2C2C3C4C52C(=O)O)NC(c2nccs2)=N[C@H]1c1ccc(F)cc1", "note": "(stereo in doubt) [Ib-24, (2S,3S,5S,6S,7S,8S)-4-((S*)-5-(ethoxycarbonyl)-6-(4-fluorophenyl)-2-(thiazol-2-yl)-3,6-dihydropyrimidin-4-yl)cubane-1-carboxylic Acid]", "values": [{"measurement": "EC50", "setting": "HBV", "value": "> 25000", "unit": "nM"}, {"measurement": "CC50 at 6 days", "setting": "[1]", "value": 223, "unit": "nM"}]}
{"smiles": "CCOC(=O)C1=C(C23C4C5C2C2C3C4C52C(=O)O)NC(c2nccs2)=N[C@@H]1c1ccccc1Cl", "note": "(stereo in doubt) [Ib-25, (2S,3S,5S,6S,7S,8S)-4-((S*)-6-(2-chlorophenyl)-5-(ethoxycarbonyl)-2-(thiazol-2-yl)-3,6-dihydropyrimidin-4-yl)cubane-1-carboxylic Acid]", "values": [{"measurement": "EC50", "setting": "HBV", "value": "> 50000", "unit": "nM"}, {"measurement": "CC50 at 6 days", "setting": "[1]", "value": 65, "unit": "nM"}]}
